Earlier results on 47 compounds are cited in patent publication US20230321008A1, “INHIBITORS OF ACID SPHINGOMYELINASE FOR PREVENTING AND TREATING THE COVID-19 DISEASE” (priority 2020, published 2023).

The data set addresses T1, acid sphingomyelinase (ASM) (Homo sapiens, UniProt P17405).
T1 sequence (P17405 47-631): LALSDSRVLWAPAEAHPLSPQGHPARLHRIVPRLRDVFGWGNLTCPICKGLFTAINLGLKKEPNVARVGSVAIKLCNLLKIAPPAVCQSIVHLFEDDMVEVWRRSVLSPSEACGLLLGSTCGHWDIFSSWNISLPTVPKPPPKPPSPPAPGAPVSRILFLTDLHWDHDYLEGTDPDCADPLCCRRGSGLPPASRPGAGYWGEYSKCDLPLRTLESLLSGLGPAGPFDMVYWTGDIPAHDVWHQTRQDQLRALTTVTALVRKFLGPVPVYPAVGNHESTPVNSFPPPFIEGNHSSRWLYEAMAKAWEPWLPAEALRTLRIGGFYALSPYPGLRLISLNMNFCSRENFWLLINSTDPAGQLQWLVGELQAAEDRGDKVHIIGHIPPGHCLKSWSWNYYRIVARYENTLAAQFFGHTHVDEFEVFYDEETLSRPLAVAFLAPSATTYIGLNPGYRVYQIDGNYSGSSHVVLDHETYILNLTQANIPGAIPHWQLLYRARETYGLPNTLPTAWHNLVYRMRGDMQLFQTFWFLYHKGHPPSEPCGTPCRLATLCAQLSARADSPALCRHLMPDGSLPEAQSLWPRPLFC
The conditions noted are these: cited from earlier work.

`COc1ccccc1OCCNCC(O)COc1cccc2[nH]c3ccccc3c12` (centres unmarked) [Carvedilol, carvedilol]: the “In vitro inhibition of acid sphingomyelinase (in words)” value (“In vitro inhibition” below) is listed as “in vitro inhibit acid sphingomyelinase with varying degrees”.

Turning to `CN(C)CC/C=C1/c2ccccc2Sc2ccc(Cl)cc21` [Chlorprothixene], the “In vitro inhibition” value is “in vitro inhibit acid sphingomyelinase with varying degrees”.

`CN(C)CCCN1c2ccccc2CCc2ccc(Cl)cc21` [Clomipramine, clomipramine]: the “In vitro inhibition” value is recorded as “in vitro inhibit acid sphingomyelinase with varying degrees”.

For the compound `OCCN1CCN(CC/C=C2/c3ccccc3Sc3ccc(C(F)(F)F)cc32)CC1` [Flupenthixol], the “In vitro inhibition” value was “in vitro inhibit acid sphingomyelinase with varying degrees”.

Consider `OCCN1CCN(CCCN2c3ccccc3Sc3ccc(C(F)(F)F)cc32)CC1` [Fluphenazine], for which the “In vitro inhibition” value is reported as “in vitro inhibit acid sphingomyelinase with varying degrees”.

As for `OC1(c2ccc(Cl)c(C(F)(F)F)c2)CCN(CCCC(c2ccc(F)cc2)c2ccc(F)cc2)CC1` [Penfluridol], the “In vitro inhibition” value is given as “in vitro inhibit acid sphingomyelinase with varying degrees”.

As for `OCCN1CCN(CCCN2c3ccccc3Sc3ccc(Cl)cc32)CC1` [Perphenazine], the “In vitro inhibition” value was “in vitro inhibit acid sphingomyelinase with varying degrees”.

For `CN(C)CCCN1c2ccccc2Sc2ccccc21` [Promazine], the “In vitro inhibition” value is on record as “in vitro inhibit acid sphingomyelinase with varying degrees”.

With `O=C1NCCN1CCN1CCC(c2cn(-c3ccc(F)cc3)c3ccc(Cl)cc23)CC1` [Sertindole], the “In vitro inhibition” value was “in vitro inhibit acid sphingomyelinase with varying degrees”.

On to `CSc1ccc2c(c1)N(CCC1CCCCN1C)c1ccccc1S2` (centres unmarked) [Thioridazin], for which the “In vitro inhibition” value was “in vitro inhibit acid sphingomyelinase with varying degrees”.

Turning to `CN1CCN(CCCN2c3ccccc3Sc3ccc(C(F)(F)F)cc32)CC1` [Trifluoperazine], the “In vitro inhibition” value is reported as “in vitro inhibit acid sphingomyelinase with varying degrees”.

As for `CN(C)CCCN1c2ccccc2Sc2ccc(C(F)(F)F)cc21` [Triflupromazine], the “In vitro inhibition” value was “in vitro inhibit acid sphingomyelinase with varying degrees”.

Consider `CCN(CCCc1ccccc1)CCCc1ccccc1` [alverine], for which the “In vitro inhibition” value is “in vitro inhibit acid sphingomyelinase with varying degrees”.

For the compound `CCN(CC)CCCN(c1ccccc1)C1Cc2ccccc2C1` [aprindine], the “In vitro inhibition” value was “in vitro inhibit acid sphingomyelinase with varying degrees”.

With `COc1ccc(CCN2CCC(Nc3nc4ccccc4n3Cc3ccc(F)cc3)CC2)cc1` [astemizole], the “In vitro inhibition” value is on record as “in vitro inhibit acid sphingomyelinase with varying degrees”.

For `CN1[C@@H]2CC[C@H]1C[C@@H](OC(c1ccccc1)c1ccccc1)C2` [benztropine], the “In vitro inhibition” value is reported as “in vitro inhibit acid sphingomyelinase with varying degrees”.

As for `CC(C)COCC(CN(Cc1ccccc1)c1ccccc1)N1CCCC1` (centres unmarked) [bepridil], the “In vitro inhibition” value was “in vitro inhibit acid sphingomyelinase with varying degrees”.

For the compound `OC(CCN1CCCCC1)(c1ccccc1)C1CC2C=CC1C2` (centres unmarked) [biperidene], the “In vitro inhibition” value is recorded as “in vitro inhibit acid sphingomyelinase with varying degrees”.

Turning to `CCN(CC)CCNC(C(=O)OCCC(C)C)c1ccccc1` (centres unmarked) [camylofin], the “In vitro inhibition” value was “in vitro inhibit acid sphingomyelinase with varying degrees”.

As to `CC(C)/N=c1\cc2n(-c3ccc(Cl)cc3)c3ccccc3nc-2cc1Nc1ccc(Cl)cc1` [clofazimine], the “In vitro inhibition” value is recorded as “in vitro inhibit acid sphingomyelinase with varying degrees”.

As for `Clc1ccc(C(OCCN2CCCCC2)c2ccccc2)cc1` (centres unmarked) [cloperastine], the “In vitro inhibition” value was “in vitro inhibit acid sphingomyelinase with varying degrees”.

On to `C[C@H]1[C@H]2CC[C@H]3[C@@H]4CC=C5C[C@@H](N(C)C)CC[C@]5(C)[C@H]4CC[C@]23CN1C` [conessine], for which the “In vitro inhibition” value was “in vitro inhibit acid sphingomyelinase with varying degrees”.

As for `CN(C)CCC=C1c2ccccc2C=Cc2ccccc21` [cyclobenzaprine], the “In vitro inhibition” value was “in vitro inhibit acid sphingomyelinase with varying degrees”.

Regarding `COc1cc(C(=O)OCCCN2CCCN(CCCOC(=O)c3cc(OC)c(OC)c(OC)c3)CC2)cc(OC)c1OC` [dilazep], the “In vitro inhibition” value is listed as “in vitro inhibit acid sphingomyelinase with varying degrees”.

For `CN(C)CCC=C1c2ccccc2COc2ccccc21` [doxepin], the “In vitro inhibition” value is “in vitro inhibit acid sphingomyelinase with varying degrees”.

Regarding `CC[C@H]1CN2CCc3cc(OC)c(OC)cc3[C@@H]2C[C@@H]1C[C@H]1NCCc2cc(OC)c(OC)cc21` [emetine], the “In vitro inhibition” value is reported as “in vitro inhibit acid sphingomyelinase with varying degrees”.

On to `CC(NCCC(c1ccccc1)c1ccccc1)c1ccccc1` (centres unmarked) [fendiline], for which the “In vitro inhibition” value was “in vitro inhibit acid sphingomyelinase with varying degrees”.

In the case of `Fc1ccc(C(c2ccc(F)cc2)N2CCN(C/C=C/c3ccccc3)CC2)cc1` [flunarizine], the “In vitro inhibition” value was “in vitro inhibit acid sphingomyelinase with varying degrees”.

`CN(CCCN1c2ccccc2CCc2ccccc21)CC(=O)c1ccc(Cl)cc1` [lofepramine]: the “In vitro inhibition” value was “in vitro inhibit acid sphingomyelinase with varying degrees”.

For the compound `CCN(CCCCOC(=O)c1ccc(OC)c(OC)c1)C(C)Cc1ccc(OC)cc1` (centres unmarked) [mebeverine], the “In vitro inhibition” value was “in vitro inhibit acid sphingomyelinase with varying degrees”.

As to `CN1CCc2c(c3ccccc3n2Cc2ccccc2)C1` [mebhydrolin], the “In vitro inhibition” value was “in vitro inhibit acid sphingomyelinase with varying degrees”.

For the compound `COCC(=O)O[C@]1(CCN(C)CCCc2nc3ccccc3[nH]2)CCc2cc(F)ccc2[C@@H]1C(C)C` [mibefradil], the “In vitro inhibition” value is listed as “in vitro inhibit acid sphingomyelinase with varying degrees”.

For `CN1CCN2c3ncccc3Cc3ccccc3C2C1` (centres unmarked) [mirtazapine], the “In vitro inhibition” value is “there are discrepancies whether citalopram, venlafaxine and mirtazapine do have in vitro FIASMA effect”.

In the case of `CNCCC=C1c2ccccc2CCc2ccccc21` [nortriptyline], the “In vitro inhibition” value is recorded as “in vitro inhibit acid sphingomyelinase with varying degrees”.

`C1CCC(C(CC2CCCCN2)C2CCCCC2)CC1` (centres unmarked) [perhexiline]: the “In vitro inhibition” value is listed as “in vitro inhibit acid sphingomyelinase with varying degrees”.

In the case of `CN1CCC(=C2c3ccccc3Sc3ccccc32)CC1` [pimethixene], the “In vitro inhibition” value is listed as “in vitro inhibit acid sphingomyelinase with varying degrees”.

In the case of `CCN(CC)C(C)CN1c2ccccc2Sc2ccccc21` (centres unmarked) [profenamine], the “In vitro inhibition” value is reported as “in vitro inhibit acid sphingomyelinase with varying degrees”.

Consider `CC(CN1c2ccccc2Sc2ccccc21)N(C)C` (centres unmarked) [promethazine], for which the “In vitro inhibition” value is recorded as “in vitro inhibit acid sphingomyelinase with varying degrees”.

For the compound `CNCCCC1c2ccccc2C=Cc2ccccc21` [protriptyline], the “In vitro inhibition” value was “in vitro inhibit acid sphingomyelinase with varying degrees”.

Take `CCN(CC)CCCC(C)Nc1c2ccc(Cl)cc2nc2ccc(OC)cc12` (centres unmarked) [quinacrine]: the “In vitro inhibition” value is given as “in vitro inhibit acid sphingomyelinase with varying degrees”.

Regarding `C[C@@H]1CC[C@@]2(NC1)O[C@H]1C[C@H]3[C@@H]4CC=C5C[C@@H](O)CC[C@]5(C)[C@H]4CC[C@]3(C)[C@H]1[C@@H]2C` [solasodine], the “In vitro inhibition” value is “in vitro inhibit acid sphingomyelinase with varying degrees”.

With `CCCCCCCCNC(C)C(O)c1ccc(SC(C)C)cc1` (centres unmarked) [suloctidil], the “In vitro inhibition” value is “in vitro inhibit acid sphingomyelinase with varying degrees”.

`CC/C(=C(\c1ccccc1)c1ccc(OCCN(C)C)cc1)c1ccccc1` [tamoxifen]: the “In vitro inhibition” value is reported as “in vitro inhibit acid sphingomyelinase with varying degrees”.

In the case of `CC(C)(C)c1ccc(C(O)CCCN2CCC(C(O)(c3ccccc3)c3ccccc3)CC2)cc1` (centres unmarked) [terfenadine], the “In vitro inhibition” value is reported as “in vitro inhibit acid sphingomyelinase with varying degrees”.

In the case of `C[C@H]1CC[C@]2(NC1)O[C@H]1C[C@H]3[C@@H]4CC[C@H]5C[C@@H](O)CC[C@]5(C)[C@H]4CC[C@]3(C)[C@H]1[C@@H]2C` [tomatidine], the “In vitro inhibition” value is “in vitro inhibit acid sphingomyelinase with varying degrees”.

As to `CC(CN(C)C)CN1c2ccccc2CCc2ccccc21` (centres unmarked) [trimipramine], the “In vitro inhibition” value was “in vitro inhibit acid sphingomyelinase with varying degrees”.

As for `COc1ccc(C(CN(C)C)C2(O)CCCCC2)cc1` (centres unmarked) [venlafaxine], the “In vitro inhibition” value is “there are discrepancies whether citalopram, venlafaxine and mirtazapine do have in vitro FIASMA effect”.
